{"source": "patent US20090068290A1", "about": "“BIFEPRUNOX DOSES FOR TREATING SCHIZOPHRENIA” (priority 2006, published 2009)", "type_in_all_cases": "in vivo, human", "key": {"[1]": {"test_system": "adult subjects with schizophrenia", "test": "Calgary Depression Scale for Schizophrenia (CDSS), Clinical Study Three", "details": "for CDSS Total Score, Trt Effect / Change from Baseline in CDSS Total Score, Mean (SD) / Change from Baseline in CDSS Total Score, Median / mean change (SD) from Baseline to Endpoint in CDSS score: LOCF; for CDSS score, treatment effect (bifeprunox, placebo): Endpoint LOCF; for mean change (SD) from Baseline to Endpoint in CDSS score: ITT", "text": "SECONDARY OBJECTIVES To assess the efficacy of bifeprunox in treating schizophrenia using the Positive Symptom sub-scale score of the PANSS, the Negative Symptom sub-scale score of the PANSS, the General Psychopathology sub-scale of the PANSS, Brief Psychiatric Rating Scale (BPRS) total score derived from the PANSS, BPRS psychosis score derived from the PANSS, the Clinical Global Impression Severity of Illness score (CGI-S), the Clinical Global Impression Improvement score (CGI-I), CGI-I responder rate, PANSS responder rate based on the PANSS total score, Calgary Depression Scale for Schizophrenia (CDSS), and Subject Satisfaction rating.\nThere were four treatment arms in this study, approximately 144 subjects per arm. […] After completing the Single-Blind Placebo Lead-in Period of at least three days, bifeprunox-treated subjects were titrated from 0.25 mg up to 20 mg/day or 30 mg/day according to a standardized titration scheme over a seven- or eight-day period, respectively. When the assigned dose was reached, subjects were maintained at that dose for the remainder of the six week treatment period. […] Subjects were hospitalized (if not already inpatients) after eligibility for study entry was verified, starting from the Screening Visit until at least 10 days after Baseline. Subjects could be hospitalized longer than 10 days if considered medically necessary by the Investigator. Rating scale assessments for efficacy and abnormal movement disorders were done weekly except for Week 5. […] Subject satisfaction with study medication was assessed at Week 6."}, "[2]": {"test_system": "adult subjects with schizophrenia", "test": "Adverse events (TEAE, SAE, special interest, EPS-related TEAE), Clinical Study Two", "procedure": "(§1) Subjects who completed this study had the option to continue in the long-term. […] Risperidone-treated subjects were titrated from 2 mg to 6 mg daily over a three-day period and were subsequently maintained at 6 mg/day for the remainder of the treatment period. […] Blood samples were also obtained at Screening/Baseline, Week 3, and Week 6 for clinical laboratory assessments."}, "[3]": {"test_system": "adult subjects with schizophrenia", "test": "PANSS positive symptom subscale score, Clinical Study Two", "details": "Bifeprunox 30 mg, LOCF, ITT", "procedure": "Rating scale assessments were performed weekly, except for week 5, to measure the change from baseline to endpoint of the PANSS total score. Other assessments included: PANSS positive symptom subscale score, PANSS negative symptom subscale score, PANSS general pschopathology subscale score, BPRS total score, BPRS psychosis score, the CGI-S score, the CGI-I score, responder rates based on the PANSS total score, and the Calgary Depression Scale for Schizophrenia (CDSS). […]\nas §1"}}, "data": [{"smiles": "O=c1[nH]c2cccc(N3CCN(Cc4cccc(-c5ccccc5)c4)CC3)c2o1", "note": "[Bifeprunox, 7-[4-([1,1′-biphenyl]-3-ylmethyl)-1-piperazinyl]-2(3H)-benzoxazolone]", "values": [{"measurement": "CDSS Total Score, Trt Effect", "setting": "[1]; 20 mg versus placebo, Week 6, Endpoint", "value": "−0.54"}, {"measurement": "Change from Baseline in CDSS Total Score, Mean (SD)", "setting": "[1]; 20 mg, Week 1", "value": "−0.86 (2.87)"}, {"measurement": "Change from Baseline in CDSS Total Score, Median", "setting": "[1]; 20 mg, Week 1", "value": 0.0}, {"measurement": "Change from Baseline in CDSS Total Score, Mean (SD)", "setting": "[1]; 20 mg, Week 2", "value": "−1.19 (3.30)"}, {"measurement": "Change from Baseline in CDSS Total Score, Median", "setting": "[1]; 20 mg, Week 2", "value": "−1.0"}, {"measurement": "Change from Baseline in CDSS Total Score, Mean (SD)", "setting": "[1]; 20 mg, Week 3", "value": "−1.41 (3.72)"}, {"measurement": "Change from Baseline in CDSS Total Score, Median", "setting": "[1]; 20 mg, Week 3", "value": "−1.0"}, {"measurement": "Change from Baseline in CDSS Total Score, Mean (SD)", "setting": "[1]; 20 mg, Week 4", "value": "−1.35 (3.66)"}, {"measurement": "Change from Baseline in CDSS Total Score, Median", "setting": "[1]; 20 mg, Week 4", "value": "−1.0"}, {"measurement": "Change from Baseline in CDSS Total Score, Mean (SD)", "setting": "[1]; 20 mg, Week 6, Endpoint", "value": "−1.30 (3.85)"}, {"measurement": "Change from Baseline in CDSS Total Score, Median", "setting": "[1]; 20 mg, Week 6, Endpoint", "value": 0.0}, {"measurement": "CDSS Total Score, Trt Effect", "setting": "[1]; 30 mg versus placebo, Week 6, Endpoint", "value": "−0.34"}, {"measurement": "Change from Baseline in CDSS Total Score, Mean (SD)", "setting": "[1]; 30 mg, Week 1", "value": "−0.77 (2.63)"}, {"measurement": "Change from Baseline in CDSS Total Score, Median", "setting": "[1]; 30 mg, Week 1", "value": 0.0}, {"measurement": "Change from Baseline in CDSS Total Score, Mean (SD)", "setting": "[1]; 30 mg, Week 2", "value": "−0.69 (2.97)"}, {"measurement": "Change from Baseline in CDSS Total Score, Median", "setting": "[1]; 30 mg, Week 2", "value": 0.0}, {"measurement": "Change from Baseline in CDSS Total Score, Mean (SD)", "setting": "[1]; 30 mg, Week 3", "value": "−0.60 (3.10)"}, {"measurement": "Change from Baseline in CDSS Total Score, Median", "setting": "[1]; 30 mg, Week 3", "value": 0.0}, {"measurement": "Change from Baseline in CDSS Total Score, Mean (SD)", "setting": "[1]; 30 mg, Week 4", "value": "−0.65 (3.07)"}, {"measurement": "Change from Baseline in CDSS Total Score, Median", "setting": "[1]; 30 mg, Week 4", "value": 0.0}, {"measurement": "Change from Baseline in CDSS Total Score, Mean (SD)", "setting": "[1]; 30 mg, Week 6, Endpoint", "value": "−0.79 (3.02)"}, {"measurement": "Change from Baseline in CDSS Total Score, Median", "setting": "[1]; 30 mg, Week 6, Endpoint", "value": "−1.0"}, {"measurement": "CDSS score, treatment effect (bifeprunox, placebo)", "setting": "[1]; bifeprunox 20 mg (first mention)", "value": "−0.54"}, {"measurement": "mean change (SD) from Baseline to Endpoint in CDSS score", "setting": "[1]; bifeprunox 20 mg", "value": "−1.30 (3.85)"}, {"measurement": "mean change (SD) from Baseline to Endpoint in CDSS score", "setting": "[1]; bifeprunox 30 mg", "value": "−0.79 (3.02)"}, {"measurement": "CDSS score, treatment effect (bifeprunox, placebo)", "setting": "[1]; bifeprunox", "value": "−0.34"}, {"measurement": "AKATHISIA, %", "setting": "[2]; BX 30 mg", "value": "(3%)"}, {"measurement": "BALANCE DISORDER, %", "setting": "[2]; BX 30 mg", "value": "(<1%)"}, {"measurement": "COGWHEEL RIGIDITY, %", "setting": "[2]; BX 30 mg", "value": "(<1%)"}, {"measurement": "DISTURBANCE IN ATTENTION, %", "setting": "[2]; BX 30 mg", "value": "(<1%)"}, {"measurement": "DIZZINESS, %", "setting": "[2]; BX 30 mg", "value": "(8%)"}, {"measurement": "DYSARTHRIA, %", "setting": "[2]; BX 30 mg", "value": "(<1%)"}, {"measurement": "DYSGEUSIA, %", "setting": "[2]; BX 30 mg", "value": "(<1%)"}, {"measurement": "DYSKINESIA, %", "setting": "[2]; BX 30 mg", "value": "(1%)"}, {"measurement": "Dystonia, %", "setting": "[2]; BX 30 mg", "value": "(2%)"}, {"measurement": "EXTRAPYRAMIDAL DISORDER, %", "setting": "[2]; BX 30 mg", "value": "(5%)"}, {"measurement": "HEADACHE NOS, %", "setting": "[2]; BX 30 mg", "value": "(12%)"}, {"measurement": "MIGRAINE, %", "setting": "[2]; BX 30 mg", "value": "1 (<1%)"}, {"measurement": "NERVOUS SYSTEM DISORDERS, %", "setting": "[2]; BX 30 mg", "value": "(36%)"}, {"measurement": "PARAESTHESIA, %", "setting": "[2]; BX 30 mg", "value": "1 (<1%)"}, {"measurement": "PSYCHOMOTOR HYPERACTIVITY, %", "setting": "[2]; BX 30 mg", "value": "1 (<1%)"}, {"measurement": "SEDATION, %", "setting": "[2]; BX 30 mg", "value": 5, "unit": "%"}, {"measurement": "Syncope, %", "setting": "[2]; BX 30 mg", "value": "1 (<1%)"}, {"measurement": "TARDIVE DYSKINESIA, %", "setting": "[2]; BX 30 mg", "value": "< 1", "unit": "%"}, {"measurement": "TREMOR, %", "setting": "[2]; BX 30 mg", "value": 6, "unit": "%"}, {"measurement": "AKATHISIA, %", "setting": "[2]; BX 40 mg", "value": "(7%)"}, {"measurement": "Choreoathetosis, %", "setting": "[2]; BX 40 mg", "value": "(<1%)"}, {"measurement": "DIZZINESS, %", "setting": "[2]; BX 40 mg", "value": "(14%)"}, {"measurement": "DYSKINESIA, %", "setting": "[2]; BX 40 mg", "value": "(3%)"}, {"measurement": "Dystonia, %", "setting": "[2]; BX 40 mg", "value": "(2%)"}, {"measurement": "EXTRAPYRAMIDAL DISORDER, %", "setting": "[2]; BX 40 mg", "value": "(5%)"}, {"measurement": "HEADACHE NOS, %", "setting": "[2]; BX 40 mg", "value": "(17%)"}, {"measurement": "NERVOUS SYSTEM DISORDERS, %", "setting": "[2]; BX 40 mg", "value": "(37%)"}, {"measurement": "SEDATION, %", "setting": "[2]; BX 40 mg", "value": 3, "unit": "%"}, {"measurement": "SOMNOLENCE, %", "setting": "[2]; BX 40 mg", "value": "1 (<1%)"}, {"measurement": "TARDIVE DYSKINESIA, %", "setting": "[2]; BX 40 mg", "value": "1 (<1%)"}, {"measurement": "TREMOR, %", "setting": "[2]; BX 40 mg", "value": 7, "unit": "%"}, {"measurement": "safety and tolerability", "setting": "[2]; bifeprunox 30 mg and 40 mg, 6 weeks", "value": "safe and well tolerated"}, {"measurement": "incidence of severe TEAE of schizophrenia", "setting": "[2]; bifeprunox groups (30, 40 mg)", "value": 3, "unit": "%"}, {"measurement": "Change from Baseline in PANSS Positive Symptom Subscale Score, Mean (SD)", "setting": "[3]; Week 1", "value": "−2.3 (3.6)"}, {"measurement": "Change from Baseline in PANSS Positive Symptom Subscale Score, Median", "setting": "[3]; Week 1", "value": "−2"}, {"measurement": "Change from Baseline in PANSS Positive Symptom Subscale Score, Mean (SD)", "setting": "[3]; Week 2", "value": "−4.1 (5.3)"}, {"measurement": "Change from Baseline in PANSS Positive Symptom Subscale Score, Median", "setting": "[3]; Week 2", "value": "−3"}, {"measurement": "Change from Baseline in PANSS Positive Symptom Subscale Score, Mean (SD)", "setting": "[3]; Week 3", "value": "−4.5 (5.6)"}]}]}
